Data as given in PMC5637929, “RadH: A Versatile Halogenase for Integration into Synthetic Pathways” (Angewandte Chemie (International Ed. in English), 2017).

Experiments:
Assay in all cases: Michaelis-Menten halogenation kinetics
[1] = test system: O=c1cc(-c2ccccc2)oc2cc(O)ccc12; type: biochemical, Floropilus chiversii; conditions: kinetic assay conditions in supplement (Figures S4-S10)
Excerpt: (§1) Michaelis-Menten halogenation kinetics on RadH

RadH [2] = target: T1, RadH (Floropilus chiversii, UniProt C5H881); type: biochemical; conditions: kinetic assay conditions in supplement (Figures S4-S10)
T1 construct: recombinant, overproduced in E. coli, purified
T1 sequence (C5H881 whole entry): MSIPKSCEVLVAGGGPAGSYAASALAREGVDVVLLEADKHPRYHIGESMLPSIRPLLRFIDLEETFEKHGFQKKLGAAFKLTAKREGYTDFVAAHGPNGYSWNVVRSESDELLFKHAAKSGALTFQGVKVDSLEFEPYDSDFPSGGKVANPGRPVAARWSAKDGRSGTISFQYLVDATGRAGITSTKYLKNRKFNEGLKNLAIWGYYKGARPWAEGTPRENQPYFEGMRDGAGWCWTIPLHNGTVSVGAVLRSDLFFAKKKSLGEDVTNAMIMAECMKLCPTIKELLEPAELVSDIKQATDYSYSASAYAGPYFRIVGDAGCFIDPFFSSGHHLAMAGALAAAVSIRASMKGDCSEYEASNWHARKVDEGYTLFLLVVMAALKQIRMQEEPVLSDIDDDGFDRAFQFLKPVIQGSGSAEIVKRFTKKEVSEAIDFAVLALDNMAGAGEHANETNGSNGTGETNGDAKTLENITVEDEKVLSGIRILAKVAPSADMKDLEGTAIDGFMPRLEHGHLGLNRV
Excerpt: as §1

RadH [3] = target: T2, RadH (Floropilus chiversii, UniProt C5H881, D465E/T501S); type: biochemical; conditions: kinetic assay conditions in supplement (Figures S4-S10); table prints D456E/T501S, text prints D465E/T501S throughout
T2 construct: recombinant, overproduced in E. coli, purified
T2 sequence (C5H881 whole entry D465E/T501S): as the sequence (C5H881 whole entry) above, with D465E, T501S counted along it
Excerpt: as §1

[4] = table prints D456E/T501S, text prints D465E/T501S throughout

Km (RadH [2]) | Km (RadH [3]) | Molecule | other results
– | – | RadH (Floropilus chiversii) | Km [1]: 347 ± 2 µM; kcat [1]: 0.000533 ± 5e-05 s⁻¹; kcat/Km [1]: 1.53 ± 0.15 M⁻¹ s⁻¹
309 ± 19 µM | – | O=c1cc(C(F)(F)F)c2ccc(O)cc2o1 [compound 10, 10] | –
– | – | RadH (Floropilus chiversii; D465E/T501S) | Km [1, 4]: 383 ± 4 µM; kcat [1, 4]: 0.000517 ± 3.33e-05 s⁻¹; kcat/Km [1, 4]: 1.35 ± 0.0833 M⁻¹ s⁻¹
379 ± 5 µM | 465 ± 4 µM | O=c1ccc2ccc(O)cc2o1 [compound 8, 7-hydroxycoumarin] | –
277 ± 3 µM | 268 ± 10 µM | Oc1ccc2cnccc2c1 [compound 6, 6-hydroxyisoquinoline] | –
364 ± 18 µM | – | Cc1cc(=O)oc2cc(O)ccc12 [compound 11, 11] | –
281 ± 2 µM | 315 ± 1 µM | O=c1c(-c2ccc(O)cc2)coc2cc(O)ccc12 [compound 14, 14] | –
